Tested on: 616215-338-R-J1-PDC tumor spheroids, viability
Assay: Anticancer human tumor 616215-338-R-J1-PDC patient-derived colon adenocarcinoma cell line growth inhibition [GQUAD]
Settings: spheroids with HUVEC and MSC; for IC50: curve of first compound; for viability, T/C: stronger effect = lower value
How it was run: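 Viability of tumor cells grown as complex spheroids with endothelial and stromal cells, exposed to drug combinations. Top concentration at or near clinical Cmax (else 10 microM), diluted in half-log increments.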

[1] = second compound 0.0316 µM, first compound 0.0316 µM
[2] = second compound 0.0316 µM, first compound 0.1 µM
[3] = second compound 0.0316 µM, first compound 0.316 µM
[4] = second compound 0.0316 µM, first compound 1 µM
[5] = second compound 0.0316 µM, first compound 3.16 µM
[6] = second compound 0.0316 µM, first compound 10 µM
[7] = second compound 0.1 µM, first compound 0.0316 µM
[8] = second compound 0.1 µM, first compound 0.1 µM
[9] = second compound 0.1 µM, first compound 0.316 µM
[10] = second compound 0.1 µM, first compound 1 µM
[11] = second compound 0.1 µM, first compound 3.16 µM
[12] = second compound 0.1 µM, first compound 10 µM
[13] = second compound 0.316 µM, first compound 0.0316 µM
[14] = second compound 0.316 µM, first compound 0.1 µM
[15] = second compound 0.316 µM, first compound 0.316 µM
[16] = second compound 0.316 µM, first compound 1 µM
[17] = second compound 0.316 µM, first compound 3.16 µM
[18] = second compound 0.316 µM, first compound 10 µM
[19] = second compound 1 µM, first compound 0.0316 µM
[20] = second compound 1 µM, first compound 0.1 µM
[21] = second compound 1 µM, first compound 0.316 µM
[22] = second compound 1 µM, first compound 1 µM
[23] = second compound 1 µM, first compound 3.16 µM
[24] = second compound 1 µM, first compound 10 µM
[25] = second compound 3.16 µM, first compound 0.0316 µM
[26] = second compound 3.16 µM, first compound 0.1 µM
[27] = second compound 3.16 µM, first compound 0.316 µM
[28] = second compound 3.16 µM, first compound 1 µM
[29] = second compound 3.16 µM, first compound 3.16 µM
[30] = second compound 3.16 µM, first compound 10 µM
[31] = second compound 10 µM, first compound 0.0316 µM
[32] = second compound 10 µM, first compound 0.1 µM
[33] = second compound 10 µM, first compound 0.316 µM
[34] = second compound 10 µM, first compound 1 µM
[35] = second compound 10 µM, first compound 3.16 µM
[36] = second compound 10 µM, first compound 10 µM
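Further: spheroids exposed to agents for 7 days before readout.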
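Wherever viability, T/C is given: percent viability relative to DMSO vehicle control wells taken as 100%.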

`O=C(NO)c1cnc(N2CCN(S(=O)(=O)c3ccc4ccccc4c3)CC2)nc1` + CN(C)c1ccc(Nc2c3ccc(NC(=O)CCN4CCCC4)cc3nc3cc(NC(=O)CCN4CCCC4)ccc23)cc1 gave an IC50 (second compound 0.0316 µM) of 324 nM, an IC50 (second compound 0.1 µM) of 322 nM and an IC50 (second compound 0.316 µM) of 255 nM. It also gave an IC50 (second compound 1 µM) of 312 nM, an IC50 (second compound 3.16 µM) of 293 nM and an IC50 (second compound 10 µM) of 220 nM. The viability, T/C [1] was 104%, the viability, T/C [2] was 97.5% and the viability, T/C [3] was 51.4%. The viability, T/C [4] was 1.08%, the viability, T/C [5] was 0.1% and the viability, T/C [6] was 0.1%. The viability, T/C [7] was 105%, the viability, T/C [8] was 107% and the viability, T/C [9] was 50.8%. It also gave a viability, T/C [10] of 0.65%, a viability, T/C [11] of 0.04% and a viability, T/C [12] of 0.07%. For the same compound, the viability, T/C [13] was 99.6%, the viability, T/C [14] was 103% and the viability, T/C [15] was 38.2%. The viability, T/C [16] was 0.54%, the viability, T/C [17] was 0.02% and the viability, T/C [18] was 0.06%. It also gave a viability, T/C [19] of 96.5%, a viability, T/C [20] of 98.1% and a viability, T/C [21] of 49.5%. For the same compound, the viability, T/C [22] was 0.3%, the viability, T/C [23] was 0.03% and the viability, T/C [24] was 0.07%. It also gave a viability, T/C [25] of 89.9%, a viability, T/C [26] of 93.7% and a viability, T/C [27] of 47%. The viability, T/C [28] was 0.25%, the viability, T/C [29] was 0.07% and the viability, T/C [30] was 0.1%. For the same compound, the viability, T/C [31] was 101%, the viability, T/C [32] was 80.5% and the viability, T/C [33] was 37.7%. The viability, T/C [34] was 0.24%, the viability, T/C [35] was 0.16% and the viability, T/C [36] was 0.17%.

In the case of `Cn1ncnc1[C@H]1c2n[nH]c(=O)c3cc(F)cc(c23)N[C@@H]1c1ccc(F)cc1` + CN(C)c1ccc(Nc2c3ccc(NC(=O)CCN4CCCC4)cc3nc3cc(NC(=O)CCN4CCCC4)ccc23)cc1, the IC50 (second compound 0.0316 µM) is reported as > 316 nM, the IC50 (second compound 0.1 µM) is reported as > 316 nM and the IC50 (second compound 0.316 µM) is reported as > 316 nM. The IC50 (second compound 1 µM) was > 316 nM, the IC50 (second compound 3.16 µM) was > 316 nM and the IC50 (second compound 10 µM) was > 316 nM. For the same compound, the viability, T/C (second compound 0.0316 µM, first compound 0.000999 µM) was 103%, the viability, T/C (second compound 0.0316 µM, first compound 0.00316 µM) was 101% and the viability, T/C (second compound 0.0316 µM, first compound 0.00999 µM) was 99.7%. The viability, T/C [1] was 104%, the viability, T/C (second compound 0.0316 µM, first compound 0.0999 µM) was 112% and the viability, T/C [3] was 97%. It also gave a viability, T/C (second compound 0.1 µM, first compound 0.000999 µM) of 99.5%, a viability, T/C (second compound 0.1 µM, first compound 0.00316 µM) of 113% and a viability, T/C (second compound 0.1 µM, first compound 0.00999 µM) of 104%. It also gave a viability, T/C [7] of 99.8%, a viability, T/C (second compound 0.1 µM, first compound 0.0999 µM) of 95% and a viability, T/C [9] of 96.6%. The viability, T/C (second compound 0.316 µM, first compound 0.000999 µM) was 98.2%, the viability, T/C (second compound 0.316 µM, first compound 0.00316 µM) was 92.2% and the viability, T/C (second compound 0.316 µM, first compound 0.00999 µM) was 108%. For the same compound, the viability, T/C [13] was 111%, the viability, T/C (second compound 0.316 µM, first compound 0.0999 µM) was 102% and the viability, T/C [15] was 106%. For the same compound, the viability, T/C (second compound 1 µM, first compound 0.000999 µM) was 100%, the viability, T/C (second compound 1 µM, first compound 0.00316 µM) was 91.9% and the viability, T/C (second compound 1 µM, first compound 0.00999 µM) was 104%. It also gave a viability, T/C [19] of 103%, a viability, T/C (second compound 1 µM, first compound 0.0999 µM) of 98.1% and a viability, T/C [21] of 87.7%. The viability, T/C (second compound 3.16 µM, first compound 0.000999 µM) was 103%, the viability, T/C (second compound 3.16 µM, first compound 0.00316 µM) was 92.2% and the viability, T/C (second compound 3.16 µM, first compound 0.00999 µM) was 94.2%. The viability, T/C [25] was 101%, the viability, T/C (second compound 3.16 µM, first compound 0.0999 µM) was 90.5% and the viability, T/C [27] was 95.4%. For the same compound, the viability, T/C (second compound 10 µM, first compound 0.000999 µM) was 94.4%, the viability, T/C (second compound 10 µM, first compound 0.00316 µM) was 77.8% and the viability, T/C (second compound 10 µM, first compound 0.00999 µM) was 91.9%. It also gave a viability, T/C [31] of 89%, a viability, T/C (second compound 10 µM, first compound 0.0999 µM) of 90.9% and a viability, T/C [33] of 86.7%.

`CC(C)(O)C1CCC(Nc2ccc3ncc(-c4cccc(C(F)(F)F)c4)n3n2)CC1` (stereo unspecified) + Cc1[nH]c2ccc(F)cc2c1-c1nc2c3cccnc3c3ncccc3c2[nH]1 showed an IC50 (second compound 0.0316 µM) of 610 nM, an IC50 (second compound 0.1 µM) of 596 nM and an IC50 (second compound 0.316 µM) of 591 nM. For the same compound, the IC50 (second compound 1 µM) was 644 nM, the IC50 (second compound 3.16 µM) was 584 nM and the IC50 (second compound 10 µM) was 566 nM. For the same compound, the viability, T/C [1] was 99.1%, the viability, T/C [2] was 103% and the viability, T/C [3] was 103%. The viability, T/C [4] was 11.2%, the viability, T/C [5] was 0.5% and the viability, T/C [6] was 1.09%. It also gave a viability, T/C [7] of 93.7%, a viability, T/C [8] of 109% and a viability, T/C [9] of 94.3%. The viability, T/C [10] was 13.8%, the viability, T/C [11] was 0.24% and the viability, T/C [12] was 2.5%. It also gave a viability, T/C [13] of 92%, a viability, T/C [14] of 97% and a viability, T/C [15] of 97.6%. It also gave a viability, T/C [16] of 11.7%, a viability, T/C [17] of 2.23% and a viability, T/C [18] of 1.14%. It also gave a viability, T/C [19] of 97%, a viability, T/C [20] of 89.9% and a viability, T/C [21] of 91.6%. It also gave a viability, T/C [22] of 24.3%, a viability, T/C [23] of 0.55% and a viability, T/C [24] of 1.33%. It also gave a viability, T/C [25] of 98.8%, a viability, T/C [26] of 103% and a viability, T/C [27] of 95.2%. The viability, T/C [28] was 10.4%, the viability, T/C [29] was 0.45% and the viability, T/C [30] was 0.48%. For the same compound, the viability, T/C [31] was 90.1%, the viability, T/C [32] was 94.4% and the viability, T/C [33] was 93.2%. The viability, T/C [34] was 8.43%, the viability, T/C [35] was 0.77% and the viability, T/C [36] was 0.56%.

— PubChem BioAssay AID2060493 (Molecular Pharmacology Branch, DTP, NCI, 2025)
